Seven compounds from ChEMBL document CHEMBL4196107, “Antiangiogenic Activity and Chemical Derivatization of the Neurotoxic Acetogenin Annonacin Isolated from Asimina triloba” (J Nat Prod, 2018) can be followed below.

Activity calls are given as the source filed them. The rule behind the calls is not given here.

The nature of data set [1]: Effective permeability of the compound at pH 7.4 by PAMPA-BBB assay. A general note: In PAMPA a lipid-coated filter parts donor from acceptor wells.
The nature of data set [2]: Effective permeability of the compound in PBS at 10 uM at pH 7.4 after 16 hrs by PAMPA-BBB assay.
Data set [3] relates to Thoracic aorta. Nature of the data set: Antiangiogenic activity in Sprague-Dawley rat thoracic aorta ring assessed as inhibition of microvessels outgrowth after 5 days. The format is functional, tissue-based. Conditions: 120 h.
Data set [4] deals with Thoracic aorta. Briefly: Antiangiogenic activity in Sprague-Dawley rat thoracic aorta ring assessed as inhibition of microvessels outgrowth at 50 uM after 5 days. The format is functional.
For data set [5], the system named is Thoracic aorta. Nature of the data set: Antiangiogenic activity in Sprague-Dawley rat thoracic aorta ring assessed as inhibition of microvessels outgrowth at 1 uM after 5 days. The format is functional, tissue-based.

`CC(C)NCC(O)COc1cccc2ccccc12` (centres undefined) [PROPRANOLOL] gave a Papp in data set [1] of 12 ×10⁻⁶ cm/s.

In turn, `CN(Cc1cnc2nc(N)nc(N)c2n1)c1ccc(C(=O)N[C@@H](CCC(=O)O)C(=O)O)cc1` [METHOTREXATE] came in with a Papp at 16 h, 10 µM in data set [2] of 0.007 ×10⁻⁶ cm/s. This compound also came in with a Peff in data set [1] of 0.037 ×10⁻⁶ cm/s.

With `CCCCCCCCCCCC[C@@H](O)[C@H]1CC[C@H]([C@H](O)CCCC[C@H](O)CCCCC[C@@H](O)CC2=C[C@H](C)OC2=O)O1`, in data set [3], the IC50 turned out to be 3000 nM. In data set [2], this compound had a Papp at 16 h, 10 µM of 0.51 ×10⁻⁶ cm/s.

With `CCCCCCCCCCCC[C@@H](N=[N+]=[N-])[C@H]1CC[C@H]([C@@H](CCCC[C@@H](CCCCC[C@H](CC2=C[C@H](C)OC2=O)N=[N+]=[N-])N=[N+]=[N-])N=[N+]=[N-])O1`, the inhibition result in data set [4] was “inactive”.

For `CNC(=O)c1cc(Oc2ccc(NC(=O)Nc3ccc(Cl)c(C(F)(F)F)c3)cc2)ccn1`, the inhibition entry in data set [5] is “Active”.

For the compound `CO[C@@H]1[C@H](OC(=O)NC(=O)CCl)CC[C@]2(CO2)[C@H]1[C@@]1(C)O[C@@H]1CC=C(C)C`, the inhibition result in data set [4] is “Active”.

On to `CCCCCCCCCCCC[C@H](N=[N+]=[N-])[C@H]1CC[C@H]([C@H](CCCC[C@H](CCCCC[C@@H](CC2=C[C@H](C)OC2=O)N=[N+]=[N-])N=[N+]=[N-])N=[N+]=[N-])O1`, for which the inhibition at 50 µM in data set [4] (120 h) turned out to be 40%.

Broadly, the Papp is a coefficient for how fast a substance crosses the barrier. Low values mean poor permeation, high ones ready permeation. In general, IC50 refers to the concentration at which inhibition is half-maximal. What is called inhibition is the share of the control response that was lost under treatment.
